{"source": "paper PMC7911889", "about": "(Viruses, 2021)", "key": {"[1]": {"test_system": "293T human embryonic kidney cells"}, "[2]": {"test_system": "cell culture", "conditions": "cited from earlier work"}, "[3]": {"test_system": "SARS-CoV-2", "set-up": "method as in per compound as in References column of Table 1", "conditions": "read-out: Reported EC50 for inhibition of SARS-CoV-2 replication in cell culture; cited from earlier work"}, "[4]": {"assay": "in vitro", "conditions": "human"}, "[5]": {"conditions": "transfected 293T cells (human embryonic kidney)"}, "[6]": {"conditions": "read-out: CC50, CellTiter-Glo 2.0 assay, transfected 293T cells, 30 h post-transfection"}}, "note": "pEC50: −log10 of the molar value. Read-outs that look alike come from different tables or passages of the source. Non-standard residues stand in square brackets, D forms with d. Residues, ends and D or L forms follow the SMILES beside them. *: point of attachment. Nva = CCC[C@H](N)C(=O)O; Cbz = O=C(OCc1ccccc1)*"}
{"compound": "O=C(Oc1cncc(Cl)c1)c1cccs1", "note": "[MAC 5576]", "values": [{"measurement": "CC50", "setting": "[1]", "value": "> 100", "unit": "µM"}, {"measurement": "Reported CC50 (corresponding to reported EC50)", "setting": "[2]", "value": ">100", "unit": "µM"}]}
{"compound": "CC(C)C[C@H](NC(=O)OCc1ccccc1)C(=O)N[C@@H](CC1CCNC1=O)C(O)S(=O)(=O)O", "note": "(stereo partly drawn) [GC376]", "values": [{"measurement": "CC50", "setting": "[1]", "value": "> 100", "unit": "µM"}, {"measurement": "pEC50", "setting": "[3]", "value": "5.35 to 6.70"}]}
{"compound": "COC(=O)N[C@H](C(=O)N[C@@H](Cc1ccccc1)[C@@H](O)CN(Cc1ccc(-c2ccccn2)cc1)NC(=O)[C@@H](NC(=O)OC)C(C)(C)C)C(C)(C)C", "note": "[Atazanavir]", "values": [{"measurement": "CC50 at 30 h post-transfection", "setting": "[4]", "value": "> 100", "unit": "µM"}]}
{"compound": "C=C[C@@H]1C[C@]1(NC(=O)[C@@H]1C[C@@H](Oc2ncc(OC)c3ccc(Cl)cc23)CN1C(=O)[C@@H](NC(=O)OC(C)(C)C)C(C)(C)C)C(=O)NS(=O)(=O)C1CC1", "note": "[Asunaprevir]", "values": [{"measurement": "CC50", "setting": "[4]", "value": 31.5, "unit": "µM"}]}
{"compound": "O=c1c2ccccc2[se]n1-c1ccccc1", "note": "[Ebselen]", "values": [{"measurement": "CC50", "setting": "[4]", "value": 8, "unit": "µM"}]}
{"compound": "CC(C)C[C@H](NC(=O)OCc1ccccc1)C(=O)N[C@@H](C[C@@H]1CCNC1=O)C(O)S(=O)(=O)[O-].[Na+]", "note": "(stereo partly drawn) [GC376]", "values": [{"measurement": "Effect on cell viability (in words)", "setting": "[1]", "value": "no significant effect on cell viability up to 100 µM"}, {"measurement": "Reported CC50 (corresponding to reported EC50)", "setting": "[2]", "value": ">100–>200"}]}
{"compound": "COc1ccc2cc(-c3cc(-c4cc(Cl)cc(Cl)c4)nn3[C@@H](C)c3ccc(C(=O)NCCC(=O)O)cc3)ccc2c1", "note": "[MK 0893]", "values": [{"measurement": "Reported CC50 (corresponding to reported EC50)", "setting": "[2]", "value": 12.6, "unit": "µM"}, {"measurement": "pEC50", "setting": "[3]", "value": 5.49}, {"measurement": "CC50", "setting": "[4]", "value": 42.3, "unit": "µM"}]}
{"compound": "CSCC[C@@H](C=O)NC(=O)[C@H](CC(C)C)NC(=O)[C@H](CC(C)C)NC(C)=O", "note": "[Calpain Inhibitor II] (Ac-Leu-Leu-Met-aldehyde)", "values": [{"measurement": "CC50", "setting": "[1]", "value": "> 100", "unit": "µM"}, {"measurement": "Reported CC50 (corresponding to reported EC50)", "setting": "[2]", "value": ">100", "unit": "µM"}]}
{"compound": "CC(C)CN(C[C@@H](O)[C@H](Cc1ccccc1)NC(=O)O[C@H]1CO[C@H]2OCC[C@H]21)S(=O)(=O)c1ccc(N)cc1", "note": "[Darunavir]", "values": [{"measurement": "pEC50", "setting": "[3]", "value": 4.33}]}
{"compound": "COc1ccc2c(O[C@@H]3C[C@H]4C(=O)N[C@]5(C(=O)NS(=O)(=O)C6CC6)C[C@H]5/C=C\\CCCCN(C)C(=O)[C@@H]4C3)cc(-c3nc(C(C)C)cs3)nc2c1C", "note": "[Simeprevir]", "values": [{"measurement": "CC50 at 30 h post-transfection", "setting": "[4]", "value": 19.6, "unit": "µM"}]}
{"compound": "CCC[C@H](NC(=O)[C@@H]1[C@H]2CCC[C@H]2CN1C(=O)[C@@H](NC(=O)[C@@H](NC(=O)c1cnccn1)C1CCCCC1)C(C)(C)C)C(=O)C(=O)NC1CC1", "note": "[Telaprevir]", "values": [{"measurement": "CC50 at 30 h post-transfection", "setting": "[4]; [5]", "value": 71.5, "unit": "µM"}]}
{"compound": "CC(C)(C)NC(=O)N[C@H](C(=O)N1C[C@H]2[C@@H]([C@H]1C(=O)NC(CC1CCC1)C(=O)C(N)=O)C2(C)C)C(C)(C)C", "note": "(stereo partly drawn) [Boceprevir]", "values": [{"measurement": "Reported CC50 (corresponding to reported EC50)", "setting": "[2]", "value": ">100–>200"}, {"measurement": "CC50 at 30 h post-transfection", "setting": "[4]", "value": "> 100", "unit": "µM"}]}
{"compound": "GRL-0496", "values": [{"measurement": "CC50", "setting": "[1]", "value": 53.2, "unit": "µM"}, {"measurement": "Reported CC50 (corresponding to reported EC50)", "setting": "[2]", "value": 81.0, "unit": "µM"}, {"measurement": "pEC50", "setting": "[3]", "value": 5.04}]}
{"compound": "C=C[C@@H]1C[C@]1(NC(=O)[C@@H]1C[C@@H]2CN1C(=O)[C@H](C(C)(C)C)NC(=O)O[C@@H]1C[C@H]1CCCCCc1nc3ccc(OC)cc3nc1O2)C(=O)NS(=O)(=O)C1CC1", "note": "[Grazoprevir]", "values": [{"measurement": "CC50", "setting": "[1]", "value": 57.4, "unit": "µM"}]}
{"compound": "O=c1cc(-c2ccccc2)oc2cc(O)c(O)c(O)c12", "note": "[Baicalein]", "values": [{"measurement": "CC50", "setting": "[4]", "value": "> 100", "unit": "µM"}]}
{"compound": "CCCC(NC(=O)C(CC(C)C)NC(=O)OCc1ccccc1)C(=O)C(=O)NCc1ccccn1", "note": "(stereo not drawn) [Calpain Inhibitor XII]", "values": [{"measurement": "CC50", "setting": "[1]", "value": "> 100", "unit": "µM"}, {"measurement": "Reported CC50 (corresponding to reported EC50)", "setting": "[2]", "value": ">100", "unit": "µM"}]}
{"compound": "COc1cc(C)c2c(Oc3cccc(C(F)(F)F)c3)c(OC)cc(NC(C)CCCN)c2n1", "note": "(stereo not drawn) [Tafenoquine]", "values": [{"measurement": "Reported CC50 (corresponding to reported EC50)", "setting": "[2]", "value": 37.2, "unit": "µM"}, {"measurement": "CC50 at 30 h post-transfection", "setting": "[4]", "value": 2, "unit": "µM"}]}
{"compound": "CCC[C@@]1(CCc2ccccc2)CC(O)=C([C@H](CC)c2cccc(NS(=O)(=O)c3ccc(C(F)(F)F)cn3)c2)C(=O)O1", "note": "[Tipranavir]", "values": [{"measurement": "CC50 at 30 h post-transfection", "setting": "[4]", "value": 85.1, "unit": "µM"}]}
{"compound": "Brc1c(Br)c(Br)c2n[nH]nc2c1Br", "note": "[TBB]", "values": [{"measurement": "Reported CC50 (corresponding to reported EC50)", "setting": "[2]", "value": 8.9, "unit": "µM"}]}
{"compound": "CC(C)CN(C[C@@H](O)[C@H](Cc1ccccc1)NC(=O)O[C@H]1CCOC1)S(=O)(=O)c1ccc(N)cc1", "note": "[Amprenavir]", "values": [{"measurement": "CC50 at 30 h post-transfection", "setting": "[4]", "value": "> 100", "unit": "µM"}]}
{"compound": "Cc1ccc(C(=O)Nc2ccc(S(=O)(=O)O)c3cc(S(=O)(=O)O)cc(S(=O)(=O)O)c23)cc1NC(=O)c1cccc(NC(=O)Nc2cccc(C(=O)Nc3cc(C(=O)Nc4ccc(S(=O)(=O)O)c5cc(S(=O)(=O)O)cc(S(=O)(=O)O)c45)ccc3C)c2)c1", "note": "[Suramin]", "values": [{"measurement": "Reported CC50 (corresponding to reported EC50)", "setting": "[2]", "value": ">20–>5000"}, {"measurement": "pEC50", "setting": "[3]", "value": 4.70}, {"measurement": "CC50", "setting": "[4]", "value": "> 100", "unit": "µM"}]}
{"compound": "CCC[C@@H](C=O)NC(=O)[C@H](CC(C)C)NC(=O)[C@H](CC(C)C)NC(=O)OCc1ccccc1", "note": "[MG-115] (Cbz-Leu-Leu-[Nva]-aldehyde)", "values": [{"measurement": "CC50", "setting": "[1]; [6]", "value": 11, "unit": "µM"}, {"measurement": "Reported CC50 (corresponding to reported EC50)", "setting": "[2]", "value": 1.1, "unit": "µM"}]}
{"compound": "COc1cccc2c1C(=O)c1c(O)c3c(c(O)c1C2=O)C[C@@](O)(C(=O)CO)C[C@@H]3O[C@H]1C[C@H](N)[C@H](O)[C@H](C)O1", "note": "[doxorubicin]", "values": [{"measurement": "CC50 at 30 h post-transfection", "setting": "[4]; [5]", "value": 3.7, "unit": "µM"}]}
{"compound": "Cc1cccc(C)c1OCC(=O)N[C@@H](Cc1ccccc1)[C@@H](O)C[C@H](Cc1ccccc1)NC(=O)[C@H](C(C)C)N1CCCNC1=O", "note": "[Lopinavir]", "values": [{"measurement": "CC50", "setting": "[4]", "value": 29.1, "unit": "µM"}]}
{"compound": "O.O=C(OC[C@H]1O[C@@H](OC(=O)c2cc(O)c(O)c(O)c2)[C@H](OC(=O)c2cc(O)c(O)c(O)c2)[C@@H](OC(=O)c2cc(O)c(O)c(O)c2)[C@@H]1OC(=O)c1cc(O)c(O)c(O)c1)c1cc(O)c(O)c(O)c1", "note": "[penta-O-galloyl-beta-D-glucose hydrate]", "values": [{"measurement": "CC50", "setting": "[1]", "value": 30.4, "unit": "µM"}, {"measurement": "Reported CC50 (corresponding to reported EC50)", "setting": "[2]", "value": 11.2, "unit": "µM"}]}
{"compound": "CC(NC(=O)[C@H](Cc1ccccc1)NC(=O)OCc1ccccc1)C(=O)CF", "note": "(stereo partly drawn) [Z-FA-FMK]", "values": [{"measurement": "CC50", "setting": "[1]; [6]", "value": "> 100", "unit": "µM"}, {"measurement": "Reported CC50 (corresponding to reported EC50)", "setting": "[2]", "value": ">20", "unit": "µM"}]}
{"compound": "CC(C)(C)NC(=O)[C@@H]1C[C@@H]2CCCC[C@@H]2CN1C[C@@H](O)[C@H](Cc1ccccc1)NC(=O)[C@H](CC(N)=O)NC(=O)c1ccc2ccccc2n1", "note": "[Saquinavir]", "values": [{"measurement": "CC50", "setting": "[4]", "value": 27.3, "unit": "µM"}]}
{"compound": "Cc1ccc(NC(=O)c2ccc(CN3CCN(C)CC3)cc2)cc1Nc1nc(-c2cccnc2)cs1", "note": "[Masitinib]", "values": [{"measurement": "CC50 at 30 h post-transfection", "setting": "[4]; [5]", "value": 3, "unit": "µM"}]}
{"compound": "O=C1C(Cl)=C(NCCN2CCOCC2)C(=O)c2ncccc21", "note": "[DA-3003-1]", "values": [{"measurement": "CC50", "setting": "[1]; [6]", "value": 7.7, "unit": "µM"}, {"measurement": "Reported CC50 (corresponding to reported EC50)", "setting": "[2]", "value": 7.7, "unit": "µM"}]}
{"compound": "Cn1nc(-c2ccc(C(F)(F)F)cc2)nc2c(=O)n(C)c(=O)nc1-2", "note": "[Walrycin B]", "values": [{"measurement": "CC50", "setting": "[1]", "value": 29, "unit": "µM"}, {"measurement": "Reported CC50 (corresponding to reported EC50)", "setting": "[2]", "value": 4.3, "unit": "µM"}]}
{"compound": "Cc1c(O)cccc1C(=O)N[C@@H](CSc1ccccc1)[C@H](O)CN1C[C@H]2CCCC[C@H]2C[C@H]1C(=O)NC(C)(C)C", "note": "[Nelfinavir]", "values": [{"measurement": "CC50", "setting": "[4]", "value": 11.2, "unit": "µM"}]}
{"compound": "CCN(CC)CCCC(C)Nc1c2ccc(Cl)cc2nc2ccc(OC)cc12", "note": "(stereo not drawn) [Quinacrine]", "values": [{"measurement": "CC50", "setting": "[4]", "value": 2.5, "unit": "µM"}]}
{"compound": "CC(C)(C)NC(=O)[C@@H]1CN(Cc2cccnc2)CCN1C[C@@H](O)C[C@@H](Cc1ccccc1)C(=O)N[C@H]1c2ccccc2C[C@H]1O", "note": "[Indinavir]", "values": [{"measurement": "CC50", "setting": "[4]", "value": "> 100", "unit": "µM"}]}
